These molecules were tested against T1, human DGAT2 (hDGAT2) (Homo sapiens, UniProt Q96PD7) (assay: DGAT2 Enzymatic Activity Assay). Settings: membrane prep of Sf-9 cells expressing hDGAT2; 25 μM diolein, 5 μM 13C oleoyl-CoA; 13C18-triolein by LC/MS/MS; read-out: DGAT2 IC50.
T1 construct: made in house; host or cells: Sf-9 insect cells (baculovirus), membrane fraction
T1 sequence (Q96PD7 1-388): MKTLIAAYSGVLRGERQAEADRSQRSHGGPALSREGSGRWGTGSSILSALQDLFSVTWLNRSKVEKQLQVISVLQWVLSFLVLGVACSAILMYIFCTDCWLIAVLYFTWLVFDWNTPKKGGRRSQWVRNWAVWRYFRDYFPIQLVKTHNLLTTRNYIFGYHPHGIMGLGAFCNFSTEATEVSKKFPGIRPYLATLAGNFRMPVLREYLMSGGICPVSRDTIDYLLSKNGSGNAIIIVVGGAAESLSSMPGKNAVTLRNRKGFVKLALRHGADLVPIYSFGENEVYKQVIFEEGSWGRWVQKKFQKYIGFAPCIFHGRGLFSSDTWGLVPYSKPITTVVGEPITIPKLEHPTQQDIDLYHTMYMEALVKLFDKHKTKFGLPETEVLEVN
Format: biochemical
Method in brief: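 Membranes from Sf-9 cells expressing untagged human DGAT2 (8 ng/μL) incubated at rt in 100 mM Tris·Cl pH 7.0, 20 mM MgCl2, 5% ethanol with 25 μM diolein and 5 μM 13C oleoyl-CoA. 13C18-triolein product quantified by LC/MS/MS against 13C21-triolein internal standard; IC50 by 4-parameter fit.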

`CC(C)n1c(=O)n(-c2cccc(OC(F)F)c2)c2cc(F)c(C(=O)N[C@]3(C)CCS(=O)(=O)C3)cc21` [Example 113, (R)-1-(3-(Difluoromethoxy)phenyl)-6-fluoro-3-isopropyl-N-(3-methyl-1,1-dioxidotetrahydrothiophen-3-1)-2-oxo-2,3-dihydro-1H-benzo[d]imidazole-5-carboxamide] and `CC(C)n1c(=O)n(-c2cccc(OC(F)F)c2)c2cc(F)c(C(=O)N[C@@]3(C)CCS(=O)(=O)C3)cc21` [Example 114, (S)-1-(3-(Difluoromethoxy)phenyl)-6-fluoro-3-isopropyl-N-(3-methyl-1,1-dioxidotetrahydrothiophen-3-yl)-2-oxo-2,3-dihydro-1H-benzo[d]imidazole-5-carboxamide] are within 1.5-fold of each other in IC50: 0.078 µM for the first, 0.08 µM for the second.

`CCOc1cc(-n2c(=O)n(C(C)C)c3cc(C(=O)NC4(C)CS(=O)(=O)C4)c(F)cc32)c(F)cn1` [Example 116, 1-(2-ethoxy-5-fluoropyridin-4-yl)-6-fluoro-3-isopropyl-N-(3-methyl-1,1-dioxidothietan-3-yl)-2-oxo-2,3-dihydro-1H-benzo[d]imidazole-5-carboxamide] and `CC(C)n1c(=O)n(-c2cc(OC(F)F)ncc2F)c2cc(F)c(C(=O)NC3(C)CS(=O)(=O)C3)cc21` [Example 123, 1-(2-(difluoromethoxy)-5-fluoropyridin-4-yl)-6-fluoro-3-isopropyl-N-(3-methyl-1,1-dioxidothietan-3-yl)-2-oxo-2,3-dihydro-1H-benzo[d]imidazole-5-carboxamide] are within 1.5-fold of each other in IC50: 0.093 µM for the first, 0.073 µM for the second.

Going from `CCOc1cc(-n2c(=O)n(C(C)C)c3cc(C(=O)NC4(C(F)F)CCS(=O)(=O)CC4)c(F)cc32)c(F)cn1` [Example 117, N-(4-(difluoromethyl)-1,1-dioxidotetrahydro-2H-thiopyran-4-yl)-1-(2-ethoxy-5-fluoropyridin-4-yl)-6-fluoro-3-isopropyl-2-oxo-2,3-dihydro-1H-benzo[d]imidazole-5-carboxamide] to `CC(C)n1c(=O)n(-c2cc(OCC(F)F)ccn2)c2cc(F)c(C(=O)NC3(C)CCS(=O)(=O)CC3)cc21` [Example 121, 1-(4-(2,2-difluoroethoxy)pyridin-2-yl)-6-fluoro-3-isopropyl-N-(4-methyl-1,1-dioxidotetrahydro-2H-thiopyran-4-yl)-2-oxo-2,3-dihydro-1H-benzo[d]imidazole-5-carboxamide], the IC50 rises from 0.027 µM to 0.092 µM (3.4-fold). The first is the more potent here.

First: CC(C)n1c(=O)n(-c2cc(OC(F)(F)C(F)F)ccn2)c2cc(F)c(C(=O)NC3(C)CCS(=O)(=O)CC3)cc21 [Example 118, 6-fluoro-3-isopropyl-N-(4-methyl-1,1-dioxidotetrahydro-2H-thiopyran-4-yl)-2-oxo-1-(4-(1,1,2,2-tetrafluoroethoxy)pyridin-2-yl)-2,3-dihydro-1H-benzo[d]imidazole-5-carboxamide]
Second: CC(C)n1c(=O)n(-c2cc(OC(F)(F)C(F)F)ccn2)c2ccc(C(=O)NC3(C)CCS(=O)(=O)CC3)cc21 [Example 120, 3-isopropyl-N-(4-methyl-1,1-dioxidotetrahydro-2H-thiopyran-4-yl)-2-oxo-1-(4-(1,1,2,2-tetrafluoroethoxy)pyridin-2-yl)-2,3-dihydro-1H-benzo[d]imidazole-5-carboxamide]
The IC50 of the first is 1.7-fold higher: 0.0055 µM for the first, 0.0032 µM for the second. The second is the more potent here.

Compared with `CC(C)n1c(=O)n(-c2cc(OCC(F)F)ccn2)c2ccc(C(=O)NC3(C)CCS(=O)(=O)CC3)cc21` [Example 119, 1-(4-(2,2-difluoroethoxy)pyridin-2-yl)-3-isopropyl-N-(4-methyl-1,1-dioxidotetrahydro-2H-thiopyran-4-yl)-2-oxo-2,3-dihydro-1H-benzo[d]imidazole-5-carboxamide], `CC(C)n1c(=O)n(-c2cccc(OC(F)F)c2)c2ccc(C(=O)NC3(C)CCS(=O)(=O)CC3)c(F)c21` [Example 126, 1-(3-(Difluoromethoxy)phenyl)-4-fluoro-3-isopropyl-N-(4-methyl-1,1-dioxidotetrahydro-2H-thiopyran-4-yl)-2-oxo-2,3-dihydro-1H-benzo[d]imidazole-5-carboxamide] is 5-fold higher in IC50: 0.051 µM for the first, 0.257 µM for the second.

Work on `CC(C)n1c(=O)n(-c2cccc(OC(F)F)c2)c2ccc(C(=O)N[C@]3(C)CCS(=O)(=O)C3)c(F)c21` [Example 125, (R)-1-(3-(Difluoromethoxy)phenyl)-4-fluoro-3-isopropyl-N-(3-methyl-1,1-dioxidotetrahydrothiophen-3-yl)-2-oxo-2,3-dihydro-1H-benzo[d]imidazole-5-carboxamide] yielded an IC50 of 0.203 µM.

Same assay, conditions: membrane prep of Sf-9 cells expressing hDGAT2; 25 μM diolein, 5 μM 13C oleoyl-CoA; 13C18-triolein by LC/MS/MS; read-out: Human DGAT2 IC50

Compared with `CC(C)n1c(=O)n(-c2cccc(OC(F)F)c2)c2cc(F)c(C(=O)NC3(C)CCS(=O)(=O)CC3)cc21` [Example 112, 1-(3-(Difluoromethoxy)phenyl)-6-fluoro-3-isopropyl-N-(4-methyl-1,1-dioxidotetrahydro-2H-thiopyran-4-yl)-2-oxo-2,3-dihydro-1H-benzo[d]imidazole-5-carboxamide], `CC(C)n1c(=O)n(-c2cccc(OC(F)F)c2)c2cc(Cl)c(C(=O)NC3(C)CCS(=O)(=O)CC3)cc21` [Example 127] is 1.5-fold higher in IC50: 0.0738 µM for the first, 0.112 µM for the second. The first is the more potent here.

Going from `CC(C)n1c(=O)n(-c2cc(OCC(F)F)ncc2F)c2cc(F)c(C(=O)NC3(C)CCS(=O)(=O)CC3)cc21` [Example 115, 1-(2-(2,2-difluoroethoxy)-5-fluoropyridin-4-yl)-6-fluoro-3-isopropyl-N-(4-methyl-1,1-dioxidotetrahydro-2H-thiopyran-4-yl)-2-oxo-2,3-dihydro-1H-benzo[d]imidazole-5-carboxamide] to `CC(C)n1c(=O)n(-c2cc(OC(F)F)ncc2F)c2cc(F)c(C(=O)NC3(C)CCS(=O)(=O)CC3)cc21` [Example 122, 1-(2-(difluoromethoxy)-5-fluoropyridin-4-yl)-6-fluoro-3-isopropyl-N-(4-methyl-1,1-dioxidotetrahydro-2H-thiopyran-4-yl)-2-oxo-2,3-dihydro-1H-benzo[d]imidazole-5-carboxamide], the IC50 rises from 0.0041 µM to 0.056 µM (14-fold). The first is the more potent here.

Compared with `CC(C)n1c(=O)n(-c2cccc(OC(F)F)c2)c2ccc(C(=O)N[C@@]3(C)CCS(=O)(=O)C3)c(F)c21` [Example 124, (S)-1-(3-(Difluoromethoxy)phenyl)-4-fluoro-3-isopropyl-N-(3-methyl-1,1-dioxidotetrahydrothiophen-3-yl)-2-oxo-2,3-dihydro-1H-benzo[d]imidazole-5-carboxamide], `CC(C)n1c(=O)n(-c2cccc(OC(F)F)c2)c2ccc(C(=O)NC3(C)CCS(=O)(=O)CC3)c(Cl)c21` [Example 128, 4-chloro-1-(3-(difluoromethoxy)phenyl)-3-isopropyl-N-(4-methyl-1,1-dioxidotetrahydro-2H-thiopyran-4-yl)-2-oxo-2,3-dihydro-1H-benzo[d]imidazole-5-carboxamide] is 7.2-fold higher in IC50: 0.191 µM for the first, 1.38 µM for the second.

`CC(C)n1c(=O)n(-c2cccc(OC(F)F)c2)c2ccc(C(=O)NC3(C)CCS(=O)(=O)CC3)c(C#N)c21` [Example 129, 4-cyano-1-(3-(difluoromethoxy)phenyl)-3-isopropyl-N-(4-methyl-1,1-dioxidotetrahydro-2H-thiopyran-4-yl)-2-oxo-2,3-dihydro-1H-benzo[d]imidazole-5-carboxamide] was tested, and the IC50 was 0.248 µM.
